Legend:
[1] = system: Mycosphaerella arachidis; test: Mycosphaerella arachidis (Cercospora arachidicola) / liquid culture (early leaf spot); format: cell-based; conditions: 96 h, photometrically 4-5 days after application, read-out: control of Mycosphaerella arachidis
Method in brief: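 Cryostored M. arachidis conidia in potato dextrose broth were added to compound applied as DMSO solution. Incubated at 24 °C; growth inhibition measured photometrically 4-5 days after application.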

[2] = system: Mycosphaerella graminicola; test: Mycosphaerella graminicola (Septoria tritici) / liquid culture (Septoria blotch); format: cell-based; conditions: Zymoseptoria tritici, 96 h, photometrically 4-5 days after application, read-out: control of Mycosphaerella graminicola
Method in brief: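 Conidia from cryogenic storage mixed into potato dextrose broth, added to test compound in DMSO. Plates incubated at 24° C; growth inhibition read photometrically 4-5 days after application.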

[3] = system: Alternaria solani; test: Alternaria solani / tomato / leaf disc (early blight); format: in vivo; conditions: foliar, inoculated 2 days after application, vs untreated control
Protocol: Example B1: Alternaria solani/Tomato/Leaf Disc (Early Blight) Tomato leaf disks cv. Baby are placed on agar in multiwell plates (24-well format) and sprayed with the formulated test compound diluted in water. The leaf disks are inoculated with a spore suspension of the fungus 2 days after application. The inoculated leaf disks are incubated at 23° C./21° C. (day/night) and 80% relative humidity under a light regime of 12 h/12 h (light/dark) in a climate cabinet and the activity of a compound is assessed as percent disease control compared to untreated when an appropriate level of disease damage appears on untreated check disk leaf disks (5-7 days after application).

[4] = system: Monographella nivalis; test: Monographella nivalis (Microdochium nivale) / liquid culture (foot rot cereals); format: cell-based; conditions: 96 h, photometrically 4-5 days after application, read-out: control of Monographella nivalis
Method in brief: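 Microdochium nivale conidia in potato dextrose broth were added to test compound in DMSO and incubated at 24° C. Growth inhibition was measured photometrically 4-5 days after application.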

[5] = system: Glomerella lagenarium; test: Glomerella lagenarium (Colletotrichum lagenarium) / liquid culture (anthracnose); format: cell-based; conditions: Colletotrichum orbiculare, 72 h, photometrically 3-4 days after application, read-out: control of Glomerella lagenarium
Protocol: (§1) Example B5: Glomerella Lagenarium (Colletotrichum Lagenarium)/Liquid Culture (Anthracnose) Conidia of the fungus from cryogenic storage are directly mixed into a nutrient broth (potato dextrose broth). After placing a DMSO solution of test compound into a microtiter plate (96-well format), the nutrient broth containing the fungal spores is added. The test plates are incubated at 24° C. and the inhibition of growth is measured photometrically 3-4 days after application.

[6] = system: Botryotinia fuckeliana; test: Botryotinia fuckeliana (Botrytis cinerea) / liquid culture (gray mould); format: cell-based; conditions: 72 h, growth inhibition photometrically 3-4 days after application, read-out: control of Botryotinia fuckeliana
Protocol: as §1, with “B2: Botryotinia Fuckeliana (Botrytis cinerea)/Liquid” for “B5: Glomerella Lagenarium (Colletotrichum Lagenarium)/Liquid”, “(Gray Mould)” for “(Anthracnose)”, “(Vogels” for “(potato dextrose”, “determined” for “measured”

Cn1cc(C2CN(C(=O)c3cc(-c4ccccc4)on3)Cc3ccccc32)cn1 (single isomer, unassigned) [Compound P-165]
≥ 80%: inhibition of growth at 20 ppm [1] | inhibition of growth at 20 ppm [2] | pest or weed control at 200 ppm [3] | inhibition of growth at 20 ppm [4] | inhibition of growth at 20 ppm [5]

Cn1cc(C2CN(C(=O)c3nnc(-c4ccc(F)cc4F)s3)Cc3ccccc32)cn1 (stereo not shown) [Compound P-1, [5-(2,4-difluorophenyl)-1,3,4-thiadiazol-2-yl]-[4-(1-methylpyrazol-4-yl)-3,4-dihydro-1H-isoquinolin-2-yl]methanone]
≥ 80%: inhibition of growth at 20 ppm [1] | inhibition of growth at 20 ppm [2] | inhibition of growth at 20 ppm [6] | inhibition of growth at 20 ppm [4] | inhibition of growth at 20 ppm [5]

Cc1c(C2(C)CN(C(=O)c3cc(-c4ccc(F)cc4F)on3)C(C)c3ccccc32)cnn1C (stereo not shown) [Compound P-16, [5-(2,4-difluorophenyl)isoxazol-3-yl]-[4-(1,5-dimethylpyrazol-4-yl)-1,4-dimethyl-1,3-dihydroisoquinolin-2-yl]methanone]
≥ 80%: inhibition of growth at 20 ppm [1] | inhibition of growth at 20 ppm [2] | inhibition of growth at 20 ppm [6] | inhibition of growth at 20 ppm [4] | inhibition of growth at 20 ppm [5]

COc1ccc2c(c1)C(c1cnn(C)c1)CN(C(=O)c1cc(-c3ccc(F)cc3F)on1)C2C (stereo not shown) [Compound P-47, [5-(2,4-difluorophenyl)isoxazol-3-yl]-[6-methoxy-1-methyl-4-(1-methylpyrazol-4-yl)-3,4-dihydro-1H-isoquinolin-2-yl]methanone]
≥ 80%: inhibition of growth at 20 ppm [1] | inhibition of growth at 20 ppm [2] | inhibition of growth at 20 ppm [6] | inhibition of growth at 20 ppm [4] | inhibition of growth at 20 ppm [5]

Cn1cc(C2CN(C(=O)c3noc(-c4cccc(F)c4)n3)Cc3ccccc32)cn1 (stereo not shown) [Compound P-92, [5-(3-fluorophenyl)-1,2,4-oxadiazol-3-yl]-[4-(1-methylpyrazol-4-yl)-3,4-dihydro-1H-isoquinolin-2-yl]methanone]
≥ 80%: inhibition of growth at 20 ppm [1] | inhibition of growth at 20 ppm [2] | pest or weed control at 200 ppm [3] | inhibition of growth at 20 ppm [4] | inhibition of growth at 20 ppm [5]

Cc1nn(C)c(C)c1C1CN(C(=O)c2cc(-c3ccc(F)cc3F)sn2)Cc2ccccc21 (stereo not shown) [Compound P-115, [5-(2,4-difluorophenyl)isothiazol-3-yl]-[4-(1,3,5-trimethylpyrazol-4-yl)-3,4-dihydro-1H-isoquinolin-2-yl]methanone]
≥ 80%: inhibition of growth at 20 ppm [2] | pest or weed control at 200 ppm [3]

Cc1nn(C)c(C)c1C1CN(C(=O)c2cc(-c3ccc(F)cc3)on2)Cc2ccccc21 (stereo not shown) [Compound P-118, [5-(4-fluorophenyl)isoxazol-3-yl]-[4-(1,3,5-trimethylpyrazol-4-yl)-3,4-dihydro-1H-isoquinolin-2-yl]methanone]
≥ 80%: inhibition of growth at 20 ppm [1] | inhibition of growth at 20 ppm [2] | pest or weed control at 200 ppm [3]

Cn1cc(C2CN(C(=O)c3nc(-c4ccc(F)cc4F)no3)Cc3ccccc32)cn1 (stereo not shown) [Compound P-127, [3-(2,4-difluorophenyl)-1,2,4-oxadiazol-5-yl]-[4-(1-methylpyrazol-4-yl)-3,4-dihydro-1H-isoquinolin-2-yl]methanone]
≥ 80%: inhibition of growth at 20 ppm [2] | pest or weed control at 200 ppm [3] | inhibition of growth at 20 ppm [4]

CCn1cc(C2CN(C(=O)c3cc(-c4ccc(F)cc4F)on3)Cc3ccccc32)cn1 (stereo not shown) [Compound P-131, [5-(2,4-difluorophenyl)isoxazol-3-yl]-[4-(1-ethylpyrazol-4-yl)-3,4-dihydro-1H-isoquinolin-2-yl]methanone]
≥ 80%: inhibition of growth at 20 ppm [2] | pest or weed control at 200 ppm [3]

Cn1cc(C2CN(C(=O)c3cc(-c4ccc(F)cc4F)on3)Cc3cc(F)ccc32)cn1 (stereo not shown) [Compound P-134, [5-(2,4-difluorophenyl)isoxazol-3-yl]-[7-fluoro-4-(1-methylpyrazol-4-yl)-3,4-dihydro-1H-isoquinolin-2-yl]methanone]
≥ 80%: inhibition of growth at 20 ppm [1] | inhibition of growth at 20 ppm [2] | pest or weed control at 200 ppm [3] | inhibition of growth at 20 ppm [4]

Cn1cc(C2CN(C(=O)c3cc(-c4ccc(F)cc4F)on3)Cc3ccc(F)cc32)cn1 (stereo not shown) [Compound P-135, [5-(2,4-difluorophenyl)isoxazol-3-yl]-[6-fluoro-4-(1-methylpyrazol-4-yl)-3,4-dihydro-1H-isoquinolin-2-yl]methanone]
≥ 80%: inhibition of growth at 20 ppm [1] | inhibition of growth at 20 ppm [2] | inhibition of growth at 20 ppm [6] | inhibition of growth at 20 ppm [4]

Cc1nn(C)c(C)c1C1CN(C(=O)c2cc(-c3ccccc3)on2)Cc2ccccc21 (stereo not shown) [Compound P-148, (5-phenylisoxazol-3-yl)-[4-(1,3,5-trimethylpyrazol-4-yl)-3,4-dihydro-1H-isoquinolin-2-yl]methanone]
≥ 80%: inhibition of growth at 20 ppm [1] | inhibition of growth at 20 ppm [2] | pest or weed control at 200 ppm [3]

Cn1cc(C2CN(C(=O)c3nc(-c4ccccc4)no3)Cc3ccccc32)cn1 (stereo not shown) [Compound P-152, [4-(1-methylpyrazol-4-yl)-3,4-dihydro-1H-isoquinolin-2-yl]-(3-phenyl-1,2,4-oxadiazol-5-yl)methanone]
≥ 80%: inhibition of growth at 20 ppm [1] | inhibition of growth at 20 ppm [2] | inhibition of growth at 20 ppm [6] | inhibition of growth at 20 ppm [4] | inhibition of growth at 20 ppm [5]

Cn1cc(C2CN(C(=O)c3cc(-c4ccccc4F)no3)Cc3ccccc32)cn1 (stereo not shown) [Compound P-154, [3-(2-fluorophenyl)isoxazol-5-yl]-[4-(1-methylpyrazol-4-yl)-3,4-dihydro-1H-isoquinolin-2-yl]methanone]
≥ 80%: inhibition of growth at 20 ppm [1] | inhibition of growth at 20 ppm [2] | inhibition of growth at 20 ppm [6] | inhibition of growth at 20 ppm [4] | inhibition of growth at 20 ppm [5]

Cn1cc(C2CN(C(=O)c3cc(-c4cccc(F)c4)no3)Cc3ccccc32)cn1 (stereo not shown) [Compound P-159, [3-(3-fluorophenyl)isoxazol-5-yl]-[4-(1-methylpyrazol-4-yl)-3,4-dihydro-1H-isoquinolin-2-yl]methanone]
≥ 80%: inhibition of growth at 20 ppm [1] | inhibition of growth at 20 ppm [2] | inhibition of growth at 20 ppm [6] | inhibition of growth at 20 ppm [4]

Cn1cc(C2CN(C(=O)c3nnc(-c4ccccc4)s3)Cc3ccccc32)cn1 (stereo not shown) [Compound P-162, [4-(1-methylpyrazol-4-yl)-3,4-dihydro-1H-isoquinolin-2-yl]-(5-phenyl-1,3,4-thiadiazol-2-yl)methanone]
≥ 80%: inhibition of growth at 20 ppm [1] | inhibition of growth at 20 ppm [2] | inhibition of growth at 20 ppm [6] | inhibition of growth at 20 ppm [4] | inhibition of growth at 20 ppm [5]

Cn1cc(C2CN(C(=O)c3cc(-c4cccc(F)c4)on3)Cc3ccccc32)cn1 (stereo not shown) [Compound P-168, [5-(3-fluorophenyl)isoxazol-3-yl]-[4-(1-methylpyrazol-4-yl)-3,4-dihydro-1H-isoquinolin-2-yl]methanone]
≥ 80%: inhibition of growth at 20 ppm [2] | pest or weed control at 200 ppm [3]

Cn1cc(C2CN(C(=O)c3cc(-c4ccsc4)on3)Cc3ccccc32)cn1 (stereo not shown) [Compound P-181, [4-(1-methylpyrazol-4-yl)-3,4-dihydro-1H-isoquinolin-2-yl]-[5-(3-thienyl)isoxazol-3-yl]methanone]
≥ 80%: inhibition of growth at 20 ppm [1] | inhibition of growth at 20 ppm [2] | pest or weed control at 200 ppm [3] | inhibition of growth at 20 ppm [5]

Cn1cc(C2CN(C(=O)c3cc(C4CCC4)on3)Cc3ccccc32)cn1 (stereo not shown) [Compound P-182, (5-cyclobutylisoxazol-3-yl)-[4-(1-methylpyrazol-4-yl)-3,4-dihydro-1H-isoquinolin-2-yl]methanone]
≥ 80%: inhibition of growth at 20 ppm [1] | inhibition of growth at 20 ppm [2] | pest or weed control at 200 ppm [3]

Cn1cc(C2CN(C(=O)c3cc(-c4ccccc4F)on3)Cc3ccccc32)cn1 (stereo not shown) [Compound P-191, [5-(2-fluorophenyl)isoxazol-3-yl]-[4-(1-methylpyrazol-4-yl)-3,4-dihydro-1H-isoquinolin-2-yl]methanone]
≥ 80%: inhibition of growth at 20 ppm [1] | inhibition of growth at 20 ppm [2] | pest or weed control at 200 ppm [3] | inhibition of growth at 20 ppm [4] | inhibition of growth at 20 ppm [5]

Cn1cc(C2CN(C(=O)c3cc(-c4ccc(F)cc4)on3)Cc3ccccc32)cn1 (stereo not shown) [Compound P-192, [5-(4-fluorophenyl)isoxazol-3-yl]-[4-(1-methylpyrazol-4-yl)-3,4-dihydro-1H-isoquinolin-2-yl]methanone]
≥ 80%: inhibition of growth at 20 ppm [2] | inhibition of growth at 20 ppm [6] | inhibition of growth at 20 ppm [5]

Reference: patent publication US20250325534A1, “MICROBIOCIDAL TETRAHYDROISOQUINOLINE DERIVATIVES” (SYNGENTA CROP PROTECTION AG, priority 2021, published 2025)
